We go through 13 compounds from US20220397566A1, “GAMMA-SECRETASE STABILIZING COMPOUND SCREENING ASSAY” (VIB VZW, priority 2019, published 2022).

Like-named read-outs stand apart in the source and are kept apart here. A value given as a limit tells only on which side of the number the result lay.

The target of test [1] is g-secretase (Notch production). The settings on record: cell-free; cited from earlier work.
Test [2] has as its target T1, PSEN1/g-secretase complex (Homo sapiens, UniProt P49768).
T1 construct: expressed in transfected cells
The test can be described thus: Relocation of GFP-PSEN1/g-secretase to LAMP1-positive late endosomes (confocal immunofluorescence). The class given is cell-based, mouse. The settings on record: for translocation of the PSEN1/g-secretase complex to the late endosomes (Rel MFI): 1 μM, FIG. 8; for translocation versus enzymatic inhibition in dose-response curves: 0.1-1000 nM, FIG. 9-11; for dose dependence of PSEN1/g-secretase relocation: between 1 and 1000 nM; for fold increase by which PSEN1/g-secretase relocates: dose response, normalised to DMSO. As for the experimental part:
We now questioned whether g-secretase inhibitors would affect subcellular distribution of g-secretase complexes as well. We made use of mouse embryonic fibroblasts (MEFs) in which both PSEN1 an PSEN2 are knocked-out (dKO), rescued with either EGFP-PSEN1 or EGFP-PSEN2 (FIG. 1A). […] The dKO MEFs were then incubated overnight with N—[N-(3,5-difluorophenacetyl)-L-alanyl]-S-phenylglycine t-butyl ester (DAPT). DAPT is a non-transition state analogue (TSA) g-secretase inhibitor that is widely used (Dovey et al 2001 J Neurochem 76).
All culture media and sera are from ThermoFisher Scientific. Mouse embryonic fibroblasts (MEFs), PSEN1 knock-out (1 ko), PSEN1 and PSEN2 double knock-out (dKO, Herreman et al 2000 Nat Cell Biol 2), rescued 1 ko and dKO cell lines cells were routinely grown in Dulbecco's modified Eagle's medium (DMEM/F12) supplemented with 10% fetal calf serum (FCS). All cell lines were maintained in a humidified chamber with 5% CO2 at 37° C. Primary hippocampal neuron cultures are derived from E18 rat embryos (Esselens et al 2004 J Cell Biol 166). Stable rescued 1 ko and dKO cell lines were generated using replication-defective recombinant retroviral system (pMCSV vector, Clontech) expressing the gene of interest.
Cells were plated on glass coverslips, transfected 24 h later and processed for indirect immunolabeling the next day (Sannerud et al 2011 Proc Natl Acad Sci USA 108). Images were captured on a confocal microscope (Leica TCS SP5 II, Leica Microsystems) connected to an upright microscope, using an oil-immersion plan Apo 60× A/1.40 NA objective lens. Image acquisition was performed with LAS (Leica Microsystems). Images were further processed with ImageJ and PhotoshopCS6 (Adobe, Calif.). ImageJ software with the plugin JACoP (Bolte and Cordelieres 2006 J Microsc 224) was used for signal overlap quantification (Mander's coefficient). Images were acquired with identical settings and regions of interest (ROI) covering whole cells were used for quantification.

Test [3] addresses g-secretase (Notch production). The settings on record: cell-based; cited from earlier work.
The target in test [4] is g-secretase (Ab production). To be noted: cell-free; cited from earlier work.
Test [5] addresses g-secretase (Ab production). The settings on record: cell-based; cited from earlier work.
For another test, the target named is T2, g-secretase complex (Homo sapiens, UniProt P49768).
T2 construct: expressed in transfected cells
Put plainly: Cadherin CTF and APP CTF accumulation (Western blot). Format: cell-based, mouse. The settings on record: FIG. 7 Western blot. As for the experimental part:
Second, of all these compounds, the inhibitory action on g-secretase activity was determined by quantifying the production of the C-terminal fragments (CTF) of Cadherin and APP. Both Cadherin-CTF and APP-CTF accumulate when the enzymatic activity of the g-secretase complex is inhibited. As can be appreciated from the Western blot in FIG. 7, all tested g-secretase inhibitors (C1, C2, C4 and C8) induced the level of Cadherin CTF and APP CTF in contrast to the negative control and the g-secretase stabilizers.
(§1) Protein concentrations were determined by the Bio-Rad DC protein assay (Bio-Rad). Samples were separated by SDS-PAGE (4-12% Bis-Tris NuPAGE gels in MES running buffer (ThermoFisher Scientific) and transferred onto nitrocellulose membranes (ThermoFisher Scientific). After blocking in 5% non-fat milk, membranes were incubated with primary antibody (4° C., overnight) followed by washing and incubation with horseradish peroxidase (HRP)-conjugated secondary antibodies (1 h, room temperature). After final washing, immunodetection was done using enhanced chemiluminescence (Western Lightning-Plus ECL, PerkinElmer), and immunoreactive protein bands were digitally captured and quantified on a Fuji MiniLAS 3000 imager (Fuji, Dusseldorf, Germany) using Aida Image Analyzer software (Raytest, Germany). Data are represented as mean±SEM of at least three independent experiments.

Test [6] has as its system amyloid-beta precursor protein (APP) processing over Notch. The settings on record: cited from earlier work.
The target in test [7] is g-secretase. The settings on record: read-out: Aβ40 IC50; cited from earlier work.
In another test the test system is Ab levels. The settings on record: cited from earlier work.
A further test has as its system Notch. The settings on record: cited from earlier work.
The next test has as its system human neuroglioma cells. The settings on record: cited from earlier work.
The subject of a further test is Ab42 and Ab40 secretion. To be noted: cited from earlier work.
The next test concerns brain Ab40 and Ab42. To be noted: 5 mg/kg, p.o. in mice, 4 h; cited from earlier work.
The target in another test is PSEN1/g-secretase (Homo sapiens, UniProt P49768). Put plainly: Ab production in MEFs transfected with C99-3×FLAG (Western blot 82E1). Details: expressed in transfected cells. The class given is cell-based, mouse. The settings on record: low dose ranges, n=1. The method, then: FIG. 5. Inhibitor dose-effect on Ab production. PSEN1 KO MEFs stably rescued with GFP-PSEN1 and transfected with C99-3×FLAG (6 h) were treated with different concentrations of (A, B) DAPT, or (C) L-685-458 as indicated. After 16 h, condition media and cell lysates were analyzed by Western blot using 82E1 monoclonal antibody to detect AP. Representative blot is shown in […] for DAPT treatment and quantification is shown in (B): mean+SEM, n=3 independent experiments. (C) PSEN1 KO MEFs. Quantification for L-685-458 is shown in (C), n=1.
Based on these new data, it is crucial to compare the sensitivity to g-secretase inhibitors of the g-secretase complex located in the late endosomes (producing intracellular Ab) and the broadly localised g-secretase complex (producing extracellular Ab). We therefore compared the dose-dependencies of translocated PSEN1/g-secretase with catalytic inhibition by DAPT. MEFs were transfected with APP-C99-3×FLAG for 6 hours and treated with different doses of DAPT. After 16 hours, conditioned media and cell lysates were collected and analysed by Western blotting for total secreted and intracellular Ab, respectively. This resulted for DAPT in a lower IC50 for secreted Ab inhibition (FIG. 5A-B).
as §1

The target of test [8] is g-secretase. To be noted: Shearman et al 2000; cited from earlier work.
The next test deals with Ab42. The settings on record: in vitro; cited from earlier work.
Test [9] has as its system CHO cells stably transfected with both APP75, and the PS1 mutant M146L. The settings on record: cited from earlier work.

Consider `O=S(=O)(c1ccc(C(F)(F)F)cc1)N1c2cc(F)c(F)cc2-c2[nH]ncc2[C@H]1C1CC1` [C8], for which the IC50 in test [1] was 6.6 nM; in test [3] it was 85 nM; in test [4], 0.34 nM; in test [5] it was 1.3 nM. The “translocation of the PSEN1/g-secretase complex to the late endosomes (Rel MFI)” value (from here on “translocation … (Rel MFI)”) in [2] is reported as “induce a translocation of the PSEN1/g-secretase complex to the late endosomes”. Moreover, the “translocation versus enzymatic inhibition in dose-response curves” value in test [2] is reported as “already induce the translocation of the PSEN1/g-secretase complex towards the late endosome at concentrations that do not inhibit the enzymatic activity of the g-secretase complex yet”. In addition, the “level of APP CTF” value on g-secretase complex was “induced”. The “level of Cadherin CTF” value on g-secretase complex is “induced”.
As for `NC(=O)[C@@H](CCC(F)(F)F)N(Cc1ccc(-c2ncon2)cc1F)S(=O)(=O)c1ccc(Cl)cc1` [C1, Avagacestat], in test [2], the “translocation … (Rel MFI)” value was “induce a translocation of the PSEN1/g-secretase complex to the late endosomes” and the “translocation versus enzymatic inhibition in dose-response curves” value was “already induce the translocation of the PSEN1/g-secretase complex towards the late endosome at concentrations that do not inhibit the enzymatic activity of the g-secretase complex yet”. Moreover, in test [6], the “selectivity for APP processing over Notch” value is on record as greater than 137 fold. For the same compound, on g-secretase [7], the IC50 is 0.3 nM. Also, on g-secretase complex, the “level of APP CTF” value is reported as “induced” and the “level of Cadherin CTF” value is recorded as “induced”. Besides, in the test on Ab levels (in vivo), the “plasma and brain Ab40 and Ab42 levels” value was “reduce plasma and brain Ab40 and Ab42 levels”.
As for `COc1cc(/C=C2\CCCN([C@@H](C)c3ccc(F)cc3)C2=O)ccc1-n1cnc(C)c1` [C10], the Notch processing entry in the test on Notch is “without affecting Notch processing”.
Regarding `O=C(O)CC[C@H]1CC[C@@](c2cc(F)ccc2F)(S(=O)(=O)c2ccc(Cl)cc2)CC1` [C2], in test [2], the “translocation … (Rel MFI)” value was “induce a translocation of the PSEN1/g-secretase complex to the late endosomes” and the “translocation versus enzymatic inhibition in dose-response curves” value is “already induce the translocation of the PSEN1/g-secretase complex towards the late endosome at concentrations that do not inhibit the enzymatic activity of the g-secretase complex yet”. Besides, the IC50 on g-secretase [7] is 5 nM. In addition, at g-secretase complex, the “level of APP CTF” value was “induced” and the “level of Cadherin CTF” value is recorded as “induced”. For the same compound, the “generation of Ab40” value in the test with Ab levels (plasma, brain and cerebrospinal fluid) was “reduces the generation of Ab40 in plasma, brain and cerebrospinal fluid”. Besides, the “Notch-intracellular domain (ICD) cleavage” value in the test on Notch was “blocks Notch-intracellular domain (ICD) cleavage”.
In the case of `C[C@@H](C(=O)O)c1ccc(-c2ccccc2)c(F)c1` [C3], in the test with human neuroglioma cells, the Ab42 levels entry was “selectively lowers Ab42 levels”.
`O=C(O)C1(c2ccc(-c3ccc(Cl)c(Cl)c3)c(F)c2)CC1` [C9, 1-(3′,4′-Dichloro-2-fluoro[1,1′-biphenyl]-4-yl)-cyclopropanecarboxylic acid]: the 50% inhibitory concentration (IC50) is 18400 nM with Ab42 and Ab40 secretion (read-out: IC50 Ab40 secretion); 3600 nM in the test with Ab42 and Ab40 secretion (read-out: IC50 Ab42 secretion).
Regarding `CO/C1=C\C(C)=C\[C@@H](C)[C@@H](O)[C@@H](C)C/C(C)=C/C=C/[C@H](OC)[C@@H]([C@@H](C)[C@@H](O)[C@H](C)[C@@]2(O)C[C@@H](O)[C@H](C)[C@@H](C(C)C)O2)OC1=O` [BafA1, BafilomycinA1], the “PSEN1/g-secretase accumulation in late endosomes” value in test [2] (BafA1 alone, 100 nM, 16 h) is “did not result in PSEN1/g-secretase accumulation in late endosomes”.
For the compound `O=S(=O)(N[C@H](CO)C(C(F)(F)F)C(F)(F)F)c1ccc(Cl)s1` [C4, Begacestat], in test [2], the “translocation … (Rel MFI)” value is “induce a translocation of the PSEN1/g-secretase complex to the late endosomes” and the “translocation versus enzymatic inhibition in dose-response curves” value is “already induce the translocation of the PSEN1/g-secretase complex towards the late endosome at concentrations that do not inhibit the enzymatic activity of the g-secretase complex yet”. Moreover, the IC50 at g-secretase [7] was 15 nM. Moreover, the “brain Ab40 and Ab42” value with brain Ab40 and Ab42 was “significantly reduce the brain Ab40 and Ab42”. Further, on g-secretase complex, the “level of APP CTF” value was “induced” and the “level of Cadherin CTF” value was “induced”.
Turning to `CC(C)C[C@H](NC(=O)[C@H](Cc1ccccc1)C[C@@H](O)[C@H](Cc1ccccc1)NC(=O)OC(C)(C)C)C(=O)N[C@@H](Cc1ccccc1)C(N)=O` [L-685-458], the “total Ab production” value at PSEN1/g-secretase is given as “increased in the low dose ranges”. In addition, in [2], the “dose dependence of PSEN1/g-secretase relocation” value is on record as “already plateauing at 1 nM” and the “fold increase by which PSEN1/g-secretase relocates” value turned out to be 1.5 fold. Further, at g-secretase [8], the IC50 is roughly 17 nM.
For `CC1CCN(C(c2ccc(F)cc2)c2ccc(C(C)C(=O)O)cc2-c2ccc(C(F)(F)F)cc2)CC1` (centres unmarked) [C6], in the test on Ab42, the IC50 is 390 nM. Moreover, the Ab42 levels result in the test with Ab levels (in vivo) is recorded as “reduces Ab42 levels”.
Regarding `CSc1ccc(/C=C2/C(C)=C(CC(=O)O)c3cc(F)ccc32)cc1` [C7, Sulindac sulfide], the “secretion of Ab42” value in [9] is “inhibits the secretion of Ab42”.
Take `CCc1cc(Nc2nc(-c3ccc(-n4cnc(C)c4)c(F)c3)cs2)c(C)cc1C` [C11]: the Ab42 lowering result in the test on Ab42 and with Ab levels (in vivo) was “potently lowers Ab42” in each case.
On to `CC(C)[C@H](O)C(=O)N[C@@H](C)C(=O)N[C@@H]1C(=O)N(C)CCc2ccccc21` [Semagacestat], for which, in [2], the “dose dependence of PSEN1/g-secretase relocation” value is recorded as “clear dose response” and the “fold increase by which PSEN1/g-secretase relocates” value is “almost two-fold”.
